Results as given in patent US9328143B2, “Peptide derivatives and use thereof as carriers for molecules in the form of conjugates” (VECT-HORUS, priority 2008, dated 2016).
Like-named read-outs stand apart in the source and are kept apart here.

Legend:
[1] = tested on: mouse brain vessel endothelial cells; experiment: Tail vein injection of bacterial viruses in C57BL6 mice, immunostaining of brain sections; format: in vivo; conditions: 15 min and 2 h post injection, peptide expressed by bacterial viruses
Description: Double immunofluorescent staining of frozen sections of C57BL6 mouse brain, 2 h after mouse tail vein injection of control bacterial viruses (A-B) and bacterial viruses expressing a peptide (SEQ ID NO: 1) with affinity for hLDLR and mLDLR (C-D). Brain vessels are stained with anti-mouse IgG, in green (A-C); bacterial viruses are stained with anti-viral envelope protein antibody, in red (B-D).
Bacterial viruses expressing peptides with affinity for hLDLR (SEQ ID NO: 1 is described here for example) and control bacterial viruses (not expressing peptide with affinity for hLDLR) were injected into the tail veins of C57BL6 mice anaesthetised with halothane. After 15 min and 2 h post injection, the mice were sacrificed and perfused with 0.9% NaCl. Brains, livers and kidneys were frozen in isopentane and frozen sections were prepared for double immunohistochemical staining to visualise blood vessels with anti-mouse IgG and anti-viral envelope protein antibody to visualise bacterial viruses bound to endothelial cells in vivo.

[2] = target: T1, hLDLR (Homo sapiens, UniProt P01130); experiment: Immunocytochemistry: bacterial viruses on CHO-GFP (control) and CHO-hLDLR-GFP cell lines; format: binding; design: expressed in transfected cells; conditions: CHO cell line expressing GFP alone; peptide expressed by bacterial virus clone
T1 sequence (P01130 22-860): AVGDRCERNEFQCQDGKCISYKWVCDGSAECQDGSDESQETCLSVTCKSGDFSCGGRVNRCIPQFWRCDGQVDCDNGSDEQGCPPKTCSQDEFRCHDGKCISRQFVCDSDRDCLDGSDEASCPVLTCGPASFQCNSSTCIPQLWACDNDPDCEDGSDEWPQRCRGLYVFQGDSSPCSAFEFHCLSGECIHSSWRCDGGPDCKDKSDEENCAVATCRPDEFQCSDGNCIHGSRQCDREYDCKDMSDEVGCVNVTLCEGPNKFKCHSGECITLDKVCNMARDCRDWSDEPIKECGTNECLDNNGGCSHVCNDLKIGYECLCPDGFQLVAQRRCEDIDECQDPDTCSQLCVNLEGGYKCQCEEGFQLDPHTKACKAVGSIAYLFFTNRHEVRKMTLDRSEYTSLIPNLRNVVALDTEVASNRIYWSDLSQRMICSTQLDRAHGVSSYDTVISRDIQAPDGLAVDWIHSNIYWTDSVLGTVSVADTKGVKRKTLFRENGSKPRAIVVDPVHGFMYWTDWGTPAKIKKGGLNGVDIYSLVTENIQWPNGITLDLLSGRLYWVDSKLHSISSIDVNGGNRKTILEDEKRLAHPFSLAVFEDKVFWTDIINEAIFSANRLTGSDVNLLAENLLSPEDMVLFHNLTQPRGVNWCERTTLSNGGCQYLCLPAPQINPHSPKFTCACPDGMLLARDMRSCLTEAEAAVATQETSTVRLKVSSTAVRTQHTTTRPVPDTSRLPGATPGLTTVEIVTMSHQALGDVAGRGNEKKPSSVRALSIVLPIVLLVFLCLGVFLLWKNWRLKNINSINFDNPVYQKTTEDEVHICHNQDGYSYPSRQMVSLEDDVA
Text: CHO cell lines stably expressing A—GFP alone (green), and B—hLDLR-GFP (green), and immunostaining with an anti-viral envelope protein antibody of a clone of bacterial viruses expressing a peptide (SEQ ID NO: 1) with affinity for hLDLR (red dots). Cell nuclei are stained with Hoechst (blue, A1 and B1). GFP fluorescence is visible in green (A2 and B2), that of the staining of the viral envelope of the bacterial virus by the viral anti-protein antibody is visible in red (A3 and B3) and the superimposing of red and green stains is visible in yellow/orange (A4 and B4).
The bacterial virus clones identified following the binding of the peptides, which they express and which bind to hLDLR-GFP expressed by the stable CHO-hLDLR-GFP cell line, were brought together with LDLR cells and, after intensive washing, were detected with an antibody directed against the viral envelope protein of the bacterial virus followed by a second antibody coupled with Alexa 594 (FIG. 7).

[3] = target: T1, hLDLR; experiment: Displacement of SEQ ID NO: 11/S-Tag on CHO-hLDLR-RFP cells (FRET); format: binding; design: expressed in transfected cells; conditions: 10 μM peptide vs 10 μM SEQ ID NO: 11/S-Tag
Description: For the FRET approaches, cells are washed twice with 2 ml PBS and then incubated for 1 h at 37° C. with 250 μl peptide solution. They are again washed twice with 2 ml PBS and then twice with 1 ml PBS, and then scraped in 1 ml PBS and centrifuged for 5 min at 1,250 rpm. The supernatant is then aspirated and the cell pellet is lysed in 80 μl PBS+0.1% Triton X100. Twenty μl of each cell lysate are analysed by measuring fluorescence emission after the FRET reaction.
A study of the structure/activity (affinity) relationships was carried out on peptide vector SEQ ID NO: 11 via the alanine scanning (Ala-scan) technique and by N- and C-term truncation in order to determine the importance of each of the 15 constitutive amino acids of this peptide. […] Briefly, the CHO-hLDLR-RFP cells used are adherent and at confluence.
They are grown in six-well plates. Three wells of cells are used per condition.
A solution containing 10 μM peptide SEQ ID NO: 11/S-Tag is prepared in HamF12-1% BSA culture medium. To this solution is added 10 μM peptide resulting from the Ala-scan to be evaluated (competition). […]

[4] = In situ brain perfusion in mouse, transport across the BBB; format: in vivo; conditions: mouse, in vivo
Description: The in situ brain perfusion technique (in adult male OF1 mouse) is used here to select the best vectors and to provide proof of their mechanism of action for their passage in the brain across the BBB.
Radioactive peptides with high specific radioactivity (SRA, up to 100 Ci/mmol) are prepared by a strategy of acylation of the N-term amine function by tritiated propionic (or propanoic) anhydride or tritiated N-propionyl-succinimide (NPS).
The tritiation reaction of peptide vectors SEQ ID NO: 11 and SEQ ID NO: 48 in the N-term position by propionylation is carried out in DMF (1 mg peptide in 100 μl to 450 μl according to solubility) by adding 0.1 equivalent of tritiated NPS for 5 min at room temperature, then 0.9 equivalent of cold NPS (non-tritiated) for 1 h, and then a new equivalent of cold NPS for 5 h. The reaction medium is then left at 4° C. overnight and purified the following day by HPLC. The SRA for each tritiated peptide is between 5 Ci/mmol and 10 Ci/mmol (theoretically on the order of 7.7 Ci/mmol). The total quantity of radioactivity prepared by synthesis is between 600 μCi and 950 μCi.
The techniques briefly summarised below were developed to study the distribution in the brain of active substances and, in particular, the role of the BBB and, more particularly, of LDLR in the penetration of these molecules in the brain. In situ brain perfusion techniques are among the most technically demanding and the most difficult to perform in the mouse. However, in situ brain perfusion (like in vitro models) enables total control of the composition of the artificial perfusate in order to maintain the cells and vascularisation of the brain under normal physiological and anatomical conditions within the animal, without the disrupting factor of systemic distribution.
(§1) This strategy of in situ brain perfusion normally carried out in the rat was adapted for mouse (Dagenais et al., 2000, J Cereb Blood Flow Metab., 20(2), 381-6) in order to broaden its application for evaluating the parameters of transport kinetics at the BBB and the blood-retinal barrier, in transgenic and KO mutant mice for the receptors, enzymes or transporters of active substances. It involves catheterisation of a carotid artery in anaesthetised OF 1 mice and ligature of some branches of this carotid artery (external, thyroidal, occipital) in order to specifically perfuse the internal carotid and pterygopalatine arteries, which are used to evaluate the uptake in the brain of the vectors and conjugates. The catheter makes it possible to replace general circulation by infusion with a well-controlled perfusate (bicarbonate buffer, plasma or blood) by passing by the carotid. Oxygenated Krebs bicarbonate buffer is first used to evaluate the capacities of the vectors and conjugates to gain access to the brain. After catheterisation of the carotid, endogenous blood flow is stopped by sectioning the ventricles of the heart in order to avoid the mixture of buffer with blood and elevation in blood pressure. The duration of the fixed flow-rate perfusion is monitored. The buffer perfusion can be extended up to 20 min, or up to 1 h in the presence of oxygen transporters (washed erythrocytes) for studies of receptor-mediated transport (RMT).
The study of peptide vector SEQ ID NO: 11 made it possible to determine its brain transport or transfer coefficient (Kin). The duration of brain perfusion for these experiments is 5 min with a perfusate flow rate of 2 ml/min. Thus, the calculation of the Kin (volume of distribution over time of brain perfusion) of peptide vector SEQ ID NO: 11 gives a value of 3.5±0.2×10^−4 ml/s/g.

[5] = In situ perfusion in mouse, transport across the blood-retinal barrier; format: in vivo; conditions: mouse, in vivo
Text: as §1
In addition, the Kin of these various peptides, across the blood-retinal barrier (BRB), were also determined. Kin of SEQ ID NO: 11=1.2±0.2×10^−4 ml/s/g Kin of SEQ ID NO: 48=2.4±0.3×10^−4 ml/s/g Kin of SEQ ID NO: 73=0.0±0.0×10^−4 ml/s/g Kin of SEQ ID NO: 72=11.5±3.3×10^−4 ml/s/g Kin of SEQ ID NO: 74=1.8±0.2×10^−4 ml/s/g

[6] = target: T1, hLDLR; experiment: FACS: binding of bacterial viruses expressing peptides to human fibroblasts; design: endogenous in cells; host or cells: HUVEC (human umbilical vein endothelial cells), not genetically modified; conditions: peptide expressed by bacterial virus clone, vs control bacterial viruses
Description: Evaluation by FACS of the interaction between human fibroblasts and a clone of bacterial viruses expressing peptide SEQ ID NO: 12 with affinity for hLDLR, compared with control bacterial viruses not expressing peptides with affinity for this receptor.
(§2) Qualitative immunocytochemistry was supplemented with quantitative flow cytometry (FACS) with suspended cells (GFP cell line, CHO-hLDLR-GFP cell line, human fibroblasts, HUVEC). These cells were grown in culture medium, mechanically unbound and dissociated (without trypsin), centrifuged, resuspended and incubated in the presence of various bacterial virus clones and anti-LDLR antibody, for 20 min at 4° C. in order to avoid any process of endocytosis. After washings, the bacterial viruses bound to cells were visualised with anti-viral envelope protein antibody. FACS analyses were carried out with a FACSCanto system (Becton Dickinson) using BD FACSDiva software. The number of positive cells was standardised with 5,000 events for each test. The results were expressed in arbitrary units of fluorescence.
(§3) FIGS. 9, 10, 11 correspond to the results obtained for peptides SEQ ID NO: 11, SEQ ID NO: 12 and SEQ ID NO: 21 on cells of the CHO-hLDLR-GFP cell line (FIG. 9), human fibroblasts (FIG. 10) and HUVEC (FIG. 11).

[7] = Pan et al., 2004; cited from earlier work
[8] = Demeule et al., 2008; cited from earlier work
[9] = target: T1, hLDLR; experiment: FACS: binding of bacterial viruses expressing peptides to HUVEC; design: endogenous in cells; host or cells: HUVEC (human umbilical vein endothelial cells), not genetically modified
Description: Evaluation by FACS of the interaction between HUVEC and two clones of bacterial viruses expressing peptides, one cyclic (SEQ ID NO: 11), the other linear (SEQ ID NO: 21), with affinity for hLDLR, compared with control bacterial viruses not expressing peptides with affinity for this receptor.
as §2, §3

[10] = target: T1, hLDLR; experiment: FACS on HUVEC: competition between peptides expressed by bacterial viruses and natural ligand LDL; format: binding; design: endogenous in cells; host or cells: HUVEC (human umbilical vein endothelial cells), not genetically modified
Text: Evaluation by FACS on HUVEC of competition between the peptides expressed by the bacterial viruses with affinity for LDLR and its natural ligand LDL.
I—Graph representing the percentage of shift of the fluorescence signal in zone Q2 of graphs A-H obtained by FACS. […] Adding LDL leads to an 85% loss of signal in Q2 in […], indicating competition between the bacterial virus corresponding to peptide sequence SEQ ID NO: 21 and LDL at the site where LDL binds to hLDLR. The equally strong signal in Q2 of the bacterial viruses that express peptide SEQ ID NO: 11 (shift greater than 70% compared to control bacterial viruses) is only slightly shifted (17%) by adding LDL.
First, it is shown that the binding rate of bacterial viruses expressing peptides with affinity for hLDLR (SEQ ID NO: 21 and SEQ ID NO: 11 are used here as examples) is proportional to the level of LDLR expression by HUVEC. FACS experiments carried out in the presence of LDL made it possible to show and quantify a strong shift (85%) of LDL by linear peptides (for example SEQ ID NO: 21), but a small shift (17%) by cyclic peptides (for example SEQ ID NO: 11).

[11] = target: T1, hLDLR; experiment: FACS: binding of bacterial viruses expressing peptides to CHO-hLDLR-GFP cells; design: expressed in transfected cells; conditions: peptide expressed by bacterial virus clone, vs control bacterial viruses, 20 min at 4° C.
Description: Evaluation by FACS of the interaction between CHO-hLDLR-GFP cells and a clone of bacterial viruses expressing peptide SEQ ID NO: 11 with affinity for hLDLR compared with control bacterial viruses not expressing peptides with affinity for this receptor.
as §2, §3

Substance: HLDCMPRGCFRN [SEQ ID NO: 1]
- binding to brain vessel wall endothelial cells in vivo [1]: bind to vessel wall endothelial cells
- binding of bacterial viruses to cells that do not express hLDLR [2]: do not bind

Substance: (D)-CMPRLRGC [SEQ ID NO: 48]
- in vitro affinity for LDLR (displacement of SEQ ID NO: 11/S-Tag) [3]: excellent affinity
- Kin (brain transport or transfer coefficient) [4]: 4.8±0.4 ×10^−4 ml/s/g
- improvement of passage in the brain, factor vs SEQ ID NO: 11 [4]: 1.37
- Kin across the blood-retinal barrier (BRB) [5]: 2.4±0.3 ×10^−4 ml/s/g

Substance: MTVMPTGLWNPLIPS [SEQ ID NO: 12]
- shift of the signal in Q2 (FACS) [6]: significant shift

Substance: RAP protein: RAP protein; literature Kin value
- Kin [7]: 1e-05 mL/s/g

Substance: transferrin: transferrin, ligand of TfR; literature Kin value
- Kin [8]: 0.0003 mL/s/g

Substance: DSGLCMPRLRGCDPR [SEQ ID NO: 11]
- Kin (brain transport or transfer coefficient) [4]: 3.5±0.2 ×10^−4 ml/s/g
- Kin across the blood-retinal barrier (BRB) [5]: 1.2±0.2 ×10^−4 ml/s/g
- shift of the signal in Q2 (FACS) ([9]; peptide expressed by bacterial virus clone, vs control bacterial viruses): significant shift
- percentage of shift of the fluorescence signal in zone Q2 ([9]; peptide expressed by bacterial viruses, without LDL): greater than 70%
- effect of LDL on binding of peptides expressed by bacterial viruses ([10]; FACS, LDL added): No effect
- loss/shift of signal in Q2 on adding LDL ([10]; peptide expressed by bacterial viruses, in the presence of LDL): 17%
- shift of the signal in Q2 (FACS) [11]: significant shift
